# Like-named read-outs stand apart in the source and are kept apart here.
# Key:
# [1] = e-beam sterilisation of S-nitrosoglutathione at constrained temperatures (Example 2), HPLC purity and impurities vs non-irradiated control; format: physicochemical; details: few sec.
# Procedure: The experimental protocol for this Example aims to test in a controlled manner the effects on purity of a sterilizing irradiation temperature (a) at about −80° C. and (b) under positive cooling (with surrounding air temperature in the range about 18 to 24° C. and with the temperature of the vials controlled). The same radiation doses as described for Example 1 were applied. For this Example, S-nitrosoglutathione granule samples, from the same single manufacturing batch as in Example 1, contained in amber glass vials (100 mg/vial) were stored before sterilisation at about −80° C. The irradiation process at −80° C. was achieved by the presence of dry ice, which was placed to ensure low temperature of the vials but without influencing the radiation dose delivery characteristics. The matching controls were not irradiated but underwent similar conditions of thermal management before, during and after irradiation, as compared with the S-nitrosoglutathione vials that were irradiated. The e-beam radiation was performed using a moving carrier system. The S-nitrosoglutathione vials were stored at −80° C. freezer and transferred to a dry ice container before irradiation. Before the start of irradiation the S-nitrosoglutathione vials destined for irradiation at ambient temperature (and control vials) were removed from the −80° C. freezer and transferred to a location where the surrounding air temperature is controlled at 18° C. Individual low-temperature containers were used for the vials designated for each target dose and condition of thermal management. A secondary packaging box was placed in the lateral centre at the bottom of the first low-temperature container, with the vials oriented upright. The position of each vial in the configuration was documented. The vials were always irradiated from the same side. […] The arrows marked “e” show the direction of the radiation. For the S-nitrosoglutathione vials requiring cold chain management, dry ice was placed at each lateral short side of the container to ensure a cold chain was maintained during the irradiation process. Each container was placed in an irradiation container. Both the 15 kGy e-beam and 35 kGy radiation doses lasted a few seconds. Following completion of the desired irradiation process, the irradiated S-nitrosoglutathione containing vials and correspondent controls were stored at −80° C. in a freezer for subsequent analysis.
# [2] = gamma sterilisation of S-nitrosoglutathione at constrained temperatures (Example 2), HPLC purity and impurities vs non-irradiated control; format: physicochemical
# Procedure: The experimental protocol for this Example aims to test in a controlled manner the effects on purity of a sterilizing irradiation temperature (a) at about −80° C. and (b) under positive cooling (with surrounding air temperature in the range about 18 to 24° C. and with the temperature of the vials controlled). The same radiation doses as described for Example 1 were applied. For this Example, S-nitrosoglutathione granule samples, from the same single manufacturing batch as in Example 1, contained in amber glass vials (100 mg/vial) were stored before sterilisation at about −80° C. The irradiation process at −80° C. was achieved by the presence of dry ice, which was placed to ensure low temperature of the vials but without influencing the radiation dose delivery characteristics. The matching controls were not irradiated but underwent similar conditions of thermal management before, during and after irradiation, as compared with the S-nitrosoglutathione vials that were irradiated. The gamma radiation was performed using gamma radiation emitted from cobalt-60 radioactive sources. The S-nitrosoglutathione vials were stored at −80° C. in a freezer and transferred to a dry ice container before irradiation. Before the start of irradiation, the S-nitrosoglutathione vials destined for irradiation at ambient temperature (and control vials) were removed from the −80° C. freezer and transferred to a location where the surrounding temperature was controlled at 18° C. Individual low-temperature containers were used for the samples designated for each target dose and condition of thermal management, as described above in relation to the e-beam arm of this Example. The secondary packaging was placed in the lateral centre at the bottom of first low-temperature container, with the vials oriented upright. […] The arrows marked “γ” show the direction of the radiation. For the S-nitrosoglutathione product requiring cold chain management, dry ice was placed at each lateral short side of the low-temperature container to ensure a cold chain was maintained during the irradiation process. Each low-temperature container was placed in the lateral centre of an irradiation container. The 15 kGy radiation dose lasted 2 hours and 8 minutes whereas the 35 kGy dose lasted about 5 hours and 8 minutes. When necessary, the dry ice was replenished before execution of the second irradiation. Following completion of the irradiation process, the irradiated S-nitrosoglutathione products were placed in the designated −80° C. freezer. The control samples were moved from the 18° C. controlled location to the designated −80° C. freezer upon completion of the second irradiation. The time of transfer was recorded.
# [3] = cited from earlier work
# [4] = gamma sterilisation of S-nitrosoglutathione at unconstrained temperature (Example 1), HPLC purity and impurities vs non-irradiated control; format: physicochemical
# Procedure: S-nitrosoglutathione granule samples from a single manufacturing batch, contained in glass vials (up to 250 mg/vial), were stored before sterilisation surrounded by dry ice (solid CO2) at about −80° C. The matching controls were not irradiated but underwent similar conditions of storage and thermal management before, during and after irradiation, as compared with the S-nitrosoglutathione vials that were irradiated. The control purity levels of the S-nitrosoglutathione, and the level of specific impurities glutathione (GSH) and oxidised glutathione (GSSG) content and total impurities content, were analysed. Vials were exposed to either electron beam (e-beam) irradiations or to gamma irradiations. The vials were removed from the dry ice container and sterilised via two radiation dose conditions (15 kGy and 35 kGy) described below under higher temperature conditions (with surrounding air temperature in the range about 18 to 24° C. and with the temperature of the vials free to fluctuate to higher temperature). After irradiation, the vials were immediately surrounded by dry ice at about −80° C. and analysed for post-sterilisation determination of any changes in purity against the control. The gamma radiation was performed using a moving carrier system set up for delivering a 15 kGy dose and a 35 kGy dose. The 15 kGy dose radiation lasted about 8-10 hours and the temperature reached up to 40° C. The 35 kGy dose radiation lasted about 18-24 hours, with a temperature reaching up to 60° C. The radiation doses received were measured by conventional dosimeters.
# [5] = e-beam sterilisation of S-nitrosoglutathione at unconstrained temperature (Example 1), HPLC purity and impurities vs non-irradiated control; format: physicochemical; details: ~27.5 °C
# Procedure: S-nitrosoglutathione granule samples from a single manufacturing batch, contained in glass vials (up to 250 mg/vial), were stored before sterilisation surrounded by dry ice (solid CO2) at about −80° C. The matching controls were not irradiated but underwent similar conditions of storage and thermal management before, during and after irradiation, as compared with the S-nitrosoglutathione vials that were irradiated. The control purity levels of the S-nitrosoglutathione, and the level of specific impurities glutathione (GSH) and oxidised glutathione (GSSG) content and total impurities content, were analysed. Vials were exposed to either electron beam (e-beam) irradiations or to gamma irradiations. The vials were removed from the dry ice container and sterilised via two radiation dose conditions (15 kGy and 35 kGy) described below under higher temperature conditions (with surrounding air temperature in the range about 18 to 24° C. and with the temperature of the vials free to fluctuate to higher temperature). After irradiation, the vials were immediately surrounded by dry ice at about −80° C. and analysed for post-sterilisation determination of any changes in purity against the control. The e-beam radiation was performed using a moving carrier system set up for delivering a 15 kGy dose and a 35 kGy dose. The 15 kGy radiation dose lasted about 10-15 minutes and the temperature reached approximately equal to 27.5° C. (designated 27.5° C. in the Tables and Figs.). The 35 kGy radiation dose lasted about 30 minutes and the temperature reached approximately equal to 27.5° C. (designated ˜27.5° C. in the Tables and the Figs.). The radiation doses were measured by conventional dosimeters.
# [6] = liquid formulation, after at least 8-12 hours at 4 °C to 25 °C (Looker et al., 2008); cited from earlier work
structure (smiles),measurement,setting,value
"N[C@@H](CCC(=O)N[C@@H](CSN=O)C(=O)NCC(=O)O)C(=O)O [GSNO, S-nitrosoglutathione]",GSH impurity (% unit change),"[1]; 15 kGy, <27.5 °C",0.13%
same,GSNO purity (decrease % of control),"[1]; 15 kGy, <27.5 °C",−0.28%
same,GSSH impurity (% unit change),"[1]; 15 kGy, <27.5 °C",0.13%
same,Total impurities (% unit changes),"[1]; 15 kGy, <27.5 °C",0.27%
same,GSH impurity (% unit change),"[1]; 15 kGy, −80 °C",0.10%
same,GSNO purity (decrease % of control),"[1]; 15 kGy, −80 °C",−0.16%
same,GSSH impurity (% unit change),"[1]; 15 kGy, −80 °C",0.10%
same,Total impurities (% unit changes),"[1]; 15 kGy, −80 °C",0.16%
same,GSH impurity (% unit change),"[1]; 35 kGy, <27.5 °C",0.29%
same,GSNO purity (decrease % of control),"[1]; 35 kGy, <27.5 °C",−1.12%
same,GSSH impurity (% unit change),"[1]; 35 kGy, <27.5 °C",0.23%
same,Total impurities (% unit changes),"[1]; 35 kGy, <27.5 °C",1.08%
same,GSH impurity (% unit change),"[1]; 35 kGy, −80 °C",0.23%
same,GSNO purity (decrease % of control),"[1]; 35 kGy, −80 °C",−0.55%
same,GSSH impurity (% unit change),"[1]; 35 kGy, −80 °C",0.07%
same,Total impurities (% unit changes),"[1]; 35 kGy, −80 °C",0.54%
same,GSH impurity (% unit change),"[2]; 15 kGy, ~2 h, <27.5 °C",0.17%
same,GSNO purity (decrease % of control),"[2]; 15 kGy, ~2 h, <27.5 °C",−0.67%
same,GSSH impurity (% unit change),"[2]; 15 kGy, ~2 h, <27.5 °C",0.14%
same,Total impurities (% unit changes),"[2]; 15 kGy, ~2 h, <27.5 °C",0.63%
same,GSH impurity (% unit change),"[2]; 15 kGy, ~2 h, −80 °C",0.11%
same,GSNO purity (decrease % of control),"[2]; 15 kGy, ~2 h, −80 °C",−0.26%
same,GSSH impurity (% unit change),"[2]; 15 kGy, ~2 h, −80 °C",0.11%
same,Total impurities (% unit changes),"[2]; 15 kGy, ~2 h, −80 °C",0.25%
same,GSH impurity (% unit change),"[2]; 35 kGy, ~5 h, <32.5 °C",0.43%
same,GSNO purity (decrease % of control),"[2]; 35 kGy, ~5 h, <32.5 °C",−2.2%
same,GSSH impurity (% unit change),"[2]; 35 kGy, ~5 h, <32.5 °C",0.36%
same,Total impurities (% unit changes),"[2]; 35 kGy, ~5 h, <32.5 °C",2.11%
same,GSH impurity (% unit change),"[2]; 35 kGy, ~5 h, −80 °C",0.29%
same,GSNO purity (decrease % of control),"[2]; 35 kGy, ~5 h, −80 °C",−1.01%
same,GSSH impurity (% unit change),"[2]; 35 kGy, ~5 h, −80 °C",0.36%
same,Total impurities (% unit changes),"[2]; 35 kGy, ~5 h, −80 °C",0.96%
same,time reported to be stable on storage,"[3]; solid prepared by a specific method, further controlled air, radiation and temperature conditions (Looker et al., 2008; WO 2008/153762)",9 months
same,time reported to be stable on storage,"[3]; solid, inert atmosphere (argon and nitrogen), −20 °C, in the dark (Parent et al., 2013)",6 months
same,GSH impurity (% unit change),"[4]; 15 kGy, 8-10 hours, <40 °C",0.34%
same,GSNO purity (decrease % of control),"[4]; 15 kGy, 8-10 hours, <40 °C",−4.47%
same,GSSH impurity (% unit change),"[4]; 15 kGy, 8-10 hours, <40 °C",1.25%
same,Total impurities (% unit changes),"[4]; 15 kGy, 8-10 hours, <40 °C",4.25%
same,GSH impurity (% unit change),"[4]; 35 kGy, 18-24 hours, <60 °C",0.15%
same,GSNO purity (decrease % of control),"[4]; 35 kGy, 18-24 hours, <60 °C",−9.45%
same,GSSH impurity (% unit change),"[4]; 35 kGy, 18-24 hours, <60 °C",6.63%
same,Total impurities (% unit changes),"[4]; 35 kGy, 18-24 hours, <60 °C",9.12%
same,GSH impurity (% unit change),"[5]; 15 kGy, 10-15 minutes",0.17%
same,GSNO purity (decrease % of control),"[5]; 15 kGy, 10-15 minutes",−0.55%
same,GSSH impurity (% unit change),"[5]; 15 kGy, 10-15 minutes",0.11%
same,Total impurities (% unit changes),"[5]; 15 kGy, 10-15 minutes",0.53%
same,GSH impurity (% unit change),"[5]; 35 kGy, ~30 minutes",0.36%
same,GSNO purity (decrease % of control),"[5]; 35 kGy, ~30 minutes",−1.37%
same,GSSH impurity (% unit change),"[5]; 35 kGy, ~30 minutes",0.32%
same,Total impurities (% unit changes),"[5]; 35 kGy, ~30 minutes",1.26%
same,initial S-nitrosoglutathione present after storage,[6],about 85%
